In US8580794B2 (AbbVie Inc., priority 2009, dated 2013):

molecular target: GST-Bc1-2 (Homo sapiens, UniProt P10415); assay: Time Resolved-Fluorescence Resonance Energy Transfer (TR-FRET) Bcl-2 binding assay with F-Bak peptide probe; settings: GST-Bcl-2 1 nM, F-Bak probe 100 nM, Tb-anti-GST 1 nM; '<' = below limit of detection; read-out: TR-FRET Bcl-2 Binding Ki
Sequence (P10415 whole entry): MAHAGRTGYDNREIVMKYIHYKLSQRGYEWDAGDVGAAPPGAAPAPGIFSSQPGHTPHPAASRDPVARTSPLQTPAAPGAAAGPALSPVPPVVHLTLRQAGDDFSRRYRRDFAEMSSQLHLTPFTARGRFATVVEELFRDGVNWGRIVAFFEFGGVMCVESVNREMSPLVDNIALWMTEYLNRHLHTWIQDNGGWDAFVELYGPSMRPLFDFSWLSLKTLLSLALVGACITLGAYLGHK

First: O=C(NS(=O)(=O)c1ccc(OCC2(F)CCOCC2)c([N+](=O)[O-])c1)c1ccc(N2CCN(CC3=C(c4ccc(Cl)cc4)CCC4(CCCC4)C3)CC2)cc1Oc1cnc2[nH]ccc2c1 [Example 73, 4-(4-{[8-(4-chlorophenyl)spiro[4.5]dec-7-en-7-yl]methyl}piperazin-1-yl)-N-({4-[(4-fluorotetrahydro-2H-pyran-4-yl)methoxy]-3-nitrophenyl}sulfonyl)-2-(1H-pyrrolo[2,3-b]pyridin-5-yloxy)benzamide]
Second: CC1(C)CCC(CN2CCN(c3ccc(C(=O)NS(=O)(=O)c4ccc(OCC5(F)CCOCC5)c(C#N)c4)c(Oc4cnc5[nH]ccc5c4)c3)CC2)=C(c2ccc(Cl)cc2)C1 [Example 299, 4-(4-{[2-(4-chlorophenyl)-4,4-dimethylcyclohex-1-en-1-yl]methyl}piperazin-1-yl)-N-({3-cyano-4-[(4-fluorotetrahydro-2H-pyran-4-yl)methoxy]phenyl}sulfonyl)-2-(1H-pyrrolo[2,3-b]pyridin-5-yloxy)benzamide]
The Ki of the first is lower: less than 10 pM for the first, 39 pM for the second.

First: CC1(C)CCC(CN2CCN(c3ccc(C(=O)NS(=O)(=O)c4cnc(OC5CCN(C6CCOCC6)CC5)c(C#N)c4)c(Oc4cnc5[nH]ccc5c4)c3)CC2)=C(c2ccc(Cl)cc2)C1 [Example 84, 4-(4-{[2-(4-chlorophenyl)-4,4-dimethylcyclohex-1-en-1-yl]methyl}piperazin-1-yl)-N-({5-cyano-6-[(1-tetrahydro-2H-pyran-4-ylpiperidin-4-yl)oxy]pyridin-3-yl}sulfonyl)-2-(1H-pyrrolo[2,3-b]pyridin-5-yloxy)benzamide]
Second: CC1(C)CCC(CN2CCN(c3ccc(C(=O)NS(=O)(=O)c4ccc(OCC5CCOCC5)c(C#N)c4)c(Oc4cnc5[nH]ccc5c4)c3)CC2)=C(c2ccc(Cl)cc2)C1 [Example 284, 4-(4-{[2-(4-chlorophenyl)-4,4-dimethylcyclohex-1-en-1-yl]methyl}piperazin-1-yl)-N-{[3-cyano-4-(tetrahydro-2H-pyran-4-ylmethoxy)phenyl]sulfonyl}-2-(1H-pyrrolo[2,3-b]pyridin-5-yloxy)benzamide]
The Ki of the first is 5.1-fold higher: 123 pM for the first, 24 pM for the second. The second binds more tightly here.

First: CC1(C)CCC(CN2CCN(c3ccc(C(=O)NS(=O)(=O)c4ccc(O[C@@H]5CCN(C(CF)CF)C5)c([N+](=O)[O-])c4)c(Oc4cnc5[nH]ccc5c4)c3)CC2)=C(c2ccc(Cl)cc2)C1 [Example 235, 4-(4-{[2-(4-chlorophenyl)-4,4-dimethylcyclohex-1-en-1-yl]methyl}piperazin-1-yl)-N-[(4-{[(3R)-1-(1,3-difluoropropan-2-yl)pyrrolidin-3-yl]oxy}-3-nitrophenyl)sulfonyl]-2-(1H-pyrrolo[2,3-b]pyridin-5-yloxy)benzamide]
Second: CC1(C)CCC(CN2CCN(c3ccc(C(=O)NS(=O)(=O)c4ccc(NC5CN(C6COC6)C5)c([N+](=O)[O-])c4)c(Oc4cnc5[nH]ccc5c4)c3)CC2)=C(c2ccc(Cl)cc2)C1 [Example 256, 4-(4-{[2-(4-chlorophenyl)-4,4-dimethylcyclohex-1-en-1-yl]methyl}piperazin-1-yl)-N-[(3-nitro-4-{[1-(oxetan-3-yl)azetidin-3-yl]amino}phenyl)sulfonyl]-2-(1H-pyrrolo[2,3-b]pyridin-5-yloxy)benzamide]
The Ki of the first is higher: 23 pM for the first, less than 10 pM for the second. The second binds more tightly here.

Compared with `CC1(C)CCC(CC2CCN(c3ccc(C(=O)NS(=O)(=O)c4ccc(NCC5CCOCC5)c([N+](=O)[O-])c4)c(Oc4cnc5[nH]ccc5c4)c3)CC2)=C(c2ccc(Cl)cc2)C1` [Example 315, 4-(4-{[2-(4-chlorophenyl)-4,4-dimethylcyclohex-1-en-1-yl]methyl}piperidin-1-yl)-N-({3-nitro-4-[(tetrahydro-2H-pyran-4-ylmethyl)amino]phenyl}sulfonyl)-2-(1H-pyrrolo[2,3-b]pyridin-5-yloxy)benzamide], `O=C(NS(=O)(=O)c1ccc(NCC2CCOCC2)c([N+](=O)[O-])c1)c1ccc(N2CCN(CC3=C(c4ccc(Cl)cc4)CCC(CF)(CF)C3)CC2)cc1Oc1cnc2[nH]ccc2c1` [Example 353, 4-(4-{[2-(4-chlorophenyl)-5,5-bis(fluoromethyl)cyclohex-1-en-1-yl]methyl}piperazin-1-yl)-N-({3-nitro-4-[(tetrahydro-2H-pyran-4-ylmethyl)amino]phenyl}sulfonyl)-2-(1H-pyrrolo[2,3-b]pyridin-5-yloxy)benzamide] is lower in Ki: 52 pM for the first, less than 10 pM for the second. The second binds more tightly here.

Going from `CN(C)CC(=O)N1CCC(COc2ccc(S(=O)(=O)NC(=O)c3ccc(N4CCN(CC5=C(c6ccc(Cl)cc6)CC(C)(C)CC5)CC4)cc3Oc3cnc4[nH]ccc4c3)cc2Cl)CC1` [Example 295, N-[(3-chloro-4-{[1-(N,N-dimethylglycyl)piperidin-4-yl]methoxy}phenyl)sulfonyl]-4-(4-{[2-(4-chlorophenyl)-4,4-dimethylcyclohex-1-en-1-yl]methyl}piperazin-1-yl)-2-(1H-pyrrolo[2,3-b]pyridin-5-yloxy)benzamide] to `COCC(=O)N1CCC(COc2ccc(S(=O)(=O)NC(=O)c3ccc(N4CCN(CC5=C(c6ccc(Cl)cc6)CC(C)(C)CC5)CC4)cc3Oc3cnc4[nH]ccc4c3)cc2Cl)CC1` [Example 294, N-[(3-chloro-4-{[1-(methoxyacetyl)piperidin-4-yl]methoxy}phenyl)sulfonyl]-4-(4-{[2-(4-chlorophenyl)-4,4-dimethylcyclohex-1-en-1-yl]methyl}piperazin-1-yl)-2-(1H-pyrrolo[2,3-b]pyridin-5-yloxy)benzamide], the Ki rises from less than 10 pM to 46 pM. The first binds more tightly here.

Going from `CC1(C)CCC(CN2CCN(c3ccc(C(=O)NS(=O)(=O)c4cnc(OC[C@@H]5CCN(CC(F)F)C5)c(Cl)c4)c(Oc4cnc5[nH]ccc5c4)c3)CC2)=C(c2ccc(Cl)cc2)C1` [Example 281, N-[(5-chloro-6-{[(3R)-1-(2,2-difluoroethyl)pyrrolidin-3-yl]methoxy}pyridin-3-yl)sulfonyl]-4-(4-{[2-(4-chlorophenyl)-4,4-dimethylcyclohex-1-en-1-yl]methyl}piperazin-1-yl)-2-(1H-pyrrolo[2,3-b]pyridin-5-yloxy)benzamide] to `CC1(C)CCC(CN2CCN(c3ccc(C(=O)NS(=O)(=O)c4ccc(OC[C@H]5CC[C@H](O)CC5)c(Cl)c4)c(Oc4cnc5[nH]ccc5c4)c3)CC2)=C(c2ccc(Cl)cc2)C1` [Example 305, N-({3-chloro-4-[(trans-4-hydroxycyclohexyl)methoxy]phenyl}sulfonyl)-4-(4-{[2-(4-chlorophenyl)-4,4-dimethylcyclohex-1-en-1-yl]methyl}piperazin-1-yl)-2-(1H-pyrrolo[2,3-b]pyridin-5-yloxy)benzamide], the Ki falls from 145 pM to 33 pM (4.4-fold). The second binds more tightly here.

First: CC1(C)CCC(CN2CCN(c3ccc(C(=O)NS(=O)(=O)c4ccc(NCCCN5CCOCC5)c([N+](=O)[O-])c4)c(Oc4cnc5[nH]ccc5c4)c3)CC2)=C(c2ccc(Cl)cc2)C1 [Example 55, 4-(4-{[2-(4-chlorophenyl)-4,4-dimethylcyclohex-1-en-1-yl]methyl}piperazin-1-yl)-N-({4-[(3-morpholin-4-ylpropyl)amino]-3-nitrophenyl}sulfonyl)-2-(1H-pyrrolo[2,3-b]pyridin-5-yloxy)benzamide]
Second: CC1(C)CCC(CN2CCN(c3ccc(C(=O)NS(=O)(=O)c4ccc(OCC5CCOCC5)c(C(N)=O)c4)c(Oc4cnc5[nH]ccc5c4)c3)CC2)=C(c2ccc(Cl)cc2)C1 [Example 38, N-{[3-(aminocarbonyl)-4-(tetrahydro-2H-pyran-4-ylmethoxy)phenyl]sulfonyl}-4-(4-{[2-(4-chlorophenyl)-4,4-dimethylcyclohex-1-en-1-yl]methyl}piperazin-1-yl)-2-(1H-pyrrolo[2,3-b]pyridin-5-yloxy)benzamide]
The Ki of the first is lower: less than 10 pM for the first, 300 pM for the second. The first binds more tightly here.

First: CC1(C)CCC(CN2CCN(c3ccc(C(=O)NS(=O)(=O)c4cc(F)c(NCC5CCOCC5)c(Cl)c4)c(Oc4cnc5[nH]ccc5c4)c3)CC2)=C(c2ccc(Cl)cc2)C1 [Example 86, N-({3-chloro-5-fluoro-4-[(tetrahydro-2H-pyran-4-ylmethyl)amino]phenyl}sulfonyl)-4-(4-{[2-(4-chlorophenyl)-4,4-dimethylcyclohex-1-en-1-yl]methyl}piperazin-1-yl)-2-(1H-pyrrolo[2,3-b]pyridin-5-yloxy)benzamide]
Second: CC1(C)CC(c2ccc(Cl)cc2)=C(CN2CCN(c3ccc(C(=O)NS(=O)(=O)c4cnc(OCC5CCOCC5)c(C#N)c4)c(Oc4cnc5[nH]ccc5c4)c3)CC2)CO1 [Example 35, 4-(4-{[4-(4-chlorophenyl)-6,6-dimethyl-5,6-dihydro-2H-pyran-3-yl]methyl}piperazin-1-yl)-N-{[5-cyano-6-(tetrahydro-2H-pyran-4-ylmethoxy)pyridin-3-yl]sulfonyl}-2-(1H-pyrrolo[2,3-b]pyridin-5-yloxy)benzamide]
The Ki of the first is higher: 498 pM for the first, less than 10 pM for the second.

`CN(C)CCCOc1ccc(CNc2ccc(S(=O)(=O)NC(=O)c3ccc(N4CCN(CC5=C(c6ccc(Cl)cc6)CC(C)(C)CC5)CC4)cc3Oc3cnc4[nH]ccc4c3)cc2[N+](=O)[O-])cc1` [Example 197, 4-(4-{[2-(4-chlorophenyl)-4,4-dimethylcyclohex-1-en-1-yl]methyl}piperazin-1-yl)-N-{[4-({4-[3-(dimethylamino)propoxy]benzyl}amino)-3-nitrophenyl]sulfonyl}-2-(1H-pyrrolo[2,3-b]pyridin-5-yloxy)benzamide] and `CO[C@H]1CC[C@@H](CNc2ccc(S(=O)(=O)NC(=O)c3ccc(N4CCN(CC5=C(c6ccc(Cl)cc6)CC(C)(C)OC5)CC4)cc3Oc3cnc4[nH]ccc4c3)cc2[N+](=O)[O-])CC1` [Example 72, Cis-4-(4-{[4-(4-chlorophenyl)-6,6-dimethyl-5,6-dihydro-2H-pyran-3-yl]methyl}piperazin-1-yl)-N-[(4-{[(4-methoxycyclohexyl)methyl]amino}-3-nitrophenyl)sulfonyl]-2-(1H-pyrrolo[2,3-b]pyridin-5-yloxy)benzamide] cannot be ordered by Ki: less than 10 pM for the first, less than 10 pM for the second.

`O=C(NS(=O)(=O)c1ccc(NC[C@H]2CC[C@H](O)CC2)c([N+](=O)[O-])c1)c1ccc(N2CCN(CC3=C(c4ccc(Cl)cc4)CCC(F)(F)C3)CC2)cc1Oc1cnc2[nH]ccc2c1` [Example 324, 4-(4-{[2-(4-chlorophenyl)-5,5-difluorocyclohex-1-en-1-yl]methyl}piperazin-1-yl)-N-[(4-{[(trans-4-hydroxycyclohexyl)methyl]amino}-3-nitrophenyl)sulfonyl]-2-(1H-pyrrolo[2,3-b]pyridin-5-yloxy)benzamide] was tested, and the Ki was less than 10 pM.
